The results in this text go back to patent publication US4874773A, “3-Aminocarbonyl-1,4-dihydropyridine-5-carboxylic acid compounds, and pharmaceutical composition containing the same” (priority 1985, dated 1989).

Experiment [1] relates to isolated aorta. Nature of the experiment: Experiment 3 Relaxing activity on the isolated aorta (30 mM KCl contracted). Details: species or system Japanese white rabbit. Particulars: for EC50: Oryctolagus cuniculus, 30 mM KCl contraction, maximum relaxation by papaverine = 100%, read-out: EC50 (concentration for 50% relaxation); for relaxing / vasodilating activity on isolated aorta (in words): Table 8, comparison with nifedipine and nicardipine hydrochloride, etc. where stated.

Experiment [2] relates to Spontaneously hypertensive male rats. Nature of the experiment: Experiment 1-1 Hypotensive activity (oral, conscious spontaneously hypertensive rats). It is filed as in vivo, rat. As to conditions: for Recovering time / Time for recovering 1/2 of max. hypotension / Time until reaching to max. hypotension / Maximum hypotension: 10 mg/kg oral; for Maximum hypotension: mean blood pressure; for hypotensive activity (in words): Table 4, comparison with nifedipine and nicardipine hydrochloride where stated.
Description: Spontaneously hypertensive male rats (13-15 week age, one group: 3 rats) were used. […] The rats were fixed in a Howlman cage without fasting, and the femoral arterial pressure was measured by a direct method without anesthesia with a cannula which was previously inserted into the femoral artery of the animal, via a pressure transducer (MPU-0.5, manufactured by Nippon Koden K.K.). The test compounds were orally administered in the form of a suspension in 0.5% methyl cellulose solution in a dose of 10 mg/kg (in some compounds, 3 mg/kg). In the control group, only 0.5% methyl cellulose solution was administered likewise. The blood pressure was measured for 5 hours after the administration of test compounds.

For experiment [3], the system named is isolated heart. Nature of the experiment: Experiment 2-1 Activity on isolated heart. Details: species or system Japanese white rabbit. As to conditions: for activation at 3 µg/heart / inhibition at 3 µg/heart, 3 µg/heart / inhibition at 3 µg/heart: Oryctolagus cuniculus, 3 μg/heart; for activation at 3 µg/heart: read-out: Increase of coronary perfusion; for inhibition at 3 µg/heart, 3 µg/heart: read-out: Inhibitory rate of systole; for inhibition at 3 µg/heart: read-out: Reducing rate of heart pulse. How it is done:
Japanese white rabbit (weighing 2.2-2.5 kg) was anesthetized by introvenous injection of nembutal (20 mg/kg) and then sacrificed by bleeding from common carotid artery. […] After stabilizing the heart preparation for 90 minutes, the test compound was administered. There were measured the perfusion volume with a drop-counting meter (ET-600G type, manufactured by Nippon Koden K.K.) and the heart pulse and the contractility via a force-displacement transducer (FD pick up, SB-IT type, manufactured by Nippon Koden K.K.) (for measuring heart pulse, an instant pulse meter (AT-601G type, minufactured by Nippon Koden K.K.) being further used).

“Also recorded” adds a separate entry of the source. Some results are limits rather than exact numbers.

For the compound `CC1=C(C(=O)NC(C)C)C(c2ccccc2[N+](=O)[O-])C(C(=O)OCCC(C)C)=C(C)N1` (stereo not drawn) [Example 47], in experiment [1], the EC50 was 20 nM and the “relaxing / vasodilating activity on isolated aorta (in words)” value (from here on “relaxing / vasodilating activity”) was “the same or more potent activity”. Also, in experiment [2], the Recovering time was found to be 3.0 h, the “Time for recovering 1/2 of max. hypotension” value (shortened to “Time … of max. hypotension”) came out at 2.0 h, the “Time until reaching to max. hypotension” value is 30 min and the Maximum hypotension came out at 32 mmHg. Also, in experiment [3], the activation at 3 µg/heart was 35%; the inhibition at 3 µg/heart, 3 µg/heart was 5%; the inhibition at 3 µg/heart was 11%.
For the compound `CCOC(=O)C1=C(C)NC(C)=C(C(=O)N(C)C)C1c1cccc([N+](=O)[O-])c1` (stereo not drawn) [E, reference compound], the EC50 in experiment [1] was more than 1000 nM. In addition, in experiment [2], the Recovering time amounted to 1.0 h, the “Time … of max. hypotension” value is 0.5 h, the “Time until reaching to max. hypotension” value was 15 min and the Maximum hypotension is given as 5 mmHg. In addition, in experiment [3], the activation at 3 µg/heart stood at 0%; the inhibition at 3 µg/heart, 3 µg/heart turned out to be 0%; the inhibition at 3 µg/heart worked out at 1%.
As to `CC1=C(C(=O)NC(C)C)C(c2ccccc2[N+](=O)[O-])C(C(=O)OC(C)C)=C(C)N1` (stereo not drawn) [Example 45], the EC50 in experiment [1] was 170 nM. In experiment [2], the Recovering time was 1.5 h, the “Time … of max. hypotension” value was 0.5 h, the “Time until reaching to max. hypotension” value was 15 min and the Maximum hypotension amounted to 15 mmHg. In experiment [3], the activation at 3 µg/heart was determined as 0%; the inhibition at 3 µg/heart, 3 µg/heart is 0%; the inhibition at 3 µg/heart amounted to 0%.
On to `CC1=C(C(=O)NC(C)C)C(c2ccccc2[N+](=O)[O-])C(C(=O)OCCCC(C)C)=C(C)N1` (stereo not drawn) [Example 51], for which the EC50 in experiment [1] was determined as 130 nM. In experiment [2], the Recovering time was more than 5.0 h, the “Time … of max. hypotension” value was determined as 3.0 h, the “Time until reaching to max. hypotension” value was 30 min and the Maximum hypotension is 40 mmHg. Besides, in experiment [3], the activation at 3 µg/heart worked out at 40%; the inhibition at 3 µg/heart, 3 µg/heart was 30%; the inhibition at 3 µg/heart stood at 25%.
`COC(=O)C1=C(C)NC(C)=C(C(=O)NC(C)C)C1c1ccccc1[N+](=O)[O-]` (stereo not drawn) [Example 5, methyl 2,6-dimethyl-3-isopropylaminocarbonyl-4-(o-nitrophenyl)-1,4-dihydropyridine-5-carboxylate]: in experiment [1], the EC50 was 20 nM and the “relaxing / vasodilating activity” value is on record as “the same or more potent activity”. Also, in experiment [2], the Recovering time is more than 5.0 h, the “Time … of max. hypotension” value is 5.0 h, the “Time until reaching to max. hypotension” value stood at 15 min and the Maximum hypotension came out at 70 mmHg. The “hypotensive activity (in words)” value in experiment [2] was “the same or more potent activity with longer duration”. In experiment [3], the activation at 3 µg/heart worked out at 28%; the inhibition at 3 µg/heart, 3 µg/heart was 15%; the inhibition at 3 µg/heart was 25%. Besides, the “coronary vasodilating activity (in words)” value in experiment [3] (Table 6, comparison with nifedipine and nicardipine hydrochloride, etc.) is listed as “the same or more potent coronary vasodilating activity with longer duration”.
In the case of `COC(=O)C1=C(C)NC(C)=C(C(N)=O)C1c1ccccc1[N+](=O)[O-]` (stereo not drawn) [C, reference compound], in experiment [1], the EC50 is more than 1000 nM. Further, in experiment [2], the Recovering time amounted to 2.0 h, the “Time … of max. hypotension” value came out at 1.5 h, the “Time until reaching to max. hypotension” value worked out at 15 min and the Maximum hypotension is 20 mmHg. In experiment [3], the activation at 3 µg/heart stood at 16%; the inhibition at 3 µg/heart, 3 µg/heart stood at 17%; the inhibition at 3 µg/heart worked out at 7%.
For `CCCCOC(=O)C1=C(C)NC(C)=C(C(=O)NCCC)C1c1cccc([N+](=O)[O-])c1` (stereo not drawn) [Example 68], the EC50 in experiment [1] turned out to be 100 nM. For the same compound, in experiment [2], the Recovering time came to 1.0 h, the “Time … of max. hypotension” value was determined as 0.5 h, the “Time until reaching to max. hypotension” value was 15 min and the Maximum hypotension is 5 mmHg. For the same compound, in experiment [3], the activation at 3 µg/heart came out at 29%; the inhibition at 3 µg/heart, 3 µg/heart turned out to be 6%; the inhibition at 3 µg/heart amounted to 11%.
Consider `CC1=C(C(=O)NC(C)C)C(c2cccc([N+](=O)[O-])c2)C(C(=O)OCC(C)C)=C(C)N1` (stereo not drawn) [Example 65], for which the EC50 in experiment [1] was determined as 130 nM. In experiment [2], the Recovering time was 2.5 h, the “Time … of max. hypotension” value is 1.5 h, the “Time until reaching to max. hypotension” value was 30 min and the Maximum hypotension is listed as 50 mmHg. Also, in experiment [3], the activation at 3 µg/heart was 8%; the inhibition at 3 µg/heart, 3 µg/heart stood at 5%; the inhibition at 3 µg/heart is 8%.
Turning to `CCOC(=O)C1=C(C)NC(C)=C(C(=O)NC(C)C)C1c1ccccc1[N+](=O)[O-]` (stereo not drawn) [Example 43], in experiment [1], the EC50 was 18 nM and the “relaxing / vasodilating activity” value is “the same or more potent activity”. In experiment [2], the Recovering time is 5.0 h, the “Time … of max. hypotension” value is 2.5 h, the “Time until reaching to max. hypotension” value amounted to 15 min and the Maximum hypotension was determined as 68 mmHg. Besides, in experiment [3], the activation at 3 µg/heart was found to be 35%; the inhibition at 3 µg/heart, 3 µg/heart amounted to 35%; the inhibition at 3 µg/heart was found to be 40%.
With `CCCCCCCOC(=O)C1=C(C)NC(C)=C(C(=O)NC(C)C)C1c1ccccc1[N+](=O)[O-]` (stereo not drawn) [Example 1, n-heptyl 2,6-dimethyl-3-isopropylaminocarbonyl-4-(o-nitrophenyl)-1,4-dihydropyridine-5-carboxylate], in experiment [1], the EC50 is 580 nM and the “relaxing / vasodilating activity” value was “somewhat weak vasodilating activity”. Also, in experiment [2], the Recovering time was more than 5.0 h, the “Time … of max. hypotension” value was more than 5.0 h, the “Time until reaching to max. hypotension” value came to 30 min and the Maximum hypotension was determined as 78 mmHg. Further, the “hypotensive activity (in words)” value in experiment [2] is reported as “the same or more potent activity with longer duration; also recorded: potent hypotensive activity”. Besides, in experiment [3], the activation at 3 µg/heart amounted to 25%; the inhibition at 3 µg/heart, 3 µg/heart is 40%; the inhibition at 3 µg/heart stood at 15%. Further, in experiment [3] (Table 6), the “inhibitions on the heart pulse and contactility (in words)” value is “moderate inhibitions on the heart pulse and contactility”.
As for `CCCCCOC(=O)C1=C(C)NC(C)=C(C(=O)NC(C)C)C1c1ccccc1[N+](=O)[O-]` (stereo not drawn) [Example 8, n-pentyl 2,6-dimethyl-3-isopropylaminocarbonyl-4-(o-nitrophenyl)-1,4-dihydropyridine-5-carboxylate], in experiment [1], the EC50 was 30 nM and the “relaxing / vasodilating activity” value is on record as “the same or more potent activity”. In experiment [2], the Recovering time was found to be 5.0 h, the “Time … of max. hypotension” value amounted to 4.0 h, the “Time until reaching to max. hypotension” value is 15 min and the Maximum hypotension was determined as 30 mmHg. In experiment [3], the activation at 3 µg/heart was found to be 35%; the inhibition at 3 µg/heart, 3 µg/heart was determined as 13%; the inhibition at 3 µg/heart stood at 5%.
For `CCCCOC(=O)C1=C(C)NC(C)=C(C(=O)NC(C)C)C1c1ccccc1[N+](=O)[O-]` (stereo not drawn) [Example 6, n-butyl 2,6-dimethyl-3-isopropylaminocarbonyl-4-(o-nitrophenyl)-1,4-dihydropyridine-5-carboxylate], in experiment [1], the EC50 was determined as 12 nM and the “relaxing / vasodilating activity” value is listed as “the same or more potent activity”. Also, in experiment [2], the Recovering time amounted to 5.0 h, the “Time … of max. hypotension” value stood at 3.5 h, the “Time until reaching to max. hypotension” value turned out to be 15 min and the Maximum hypotension is reported as 57 mmHg. Moreover, in experiment [3], the activation at 3 µg/heart came out at 35%; the inhibition at 3 µg/heart, 3 µg/heart was 25%; the inhibition at 3 µg/heart is 13%.
In the case of `CCCCOC(=O)C1=C(C)NC(C)=C(C(=O)NC(C)C)C1c1cccc([N+](=O)[O-])c1` (stereo not drawn) [Example 64], in experiment [1], the EC50 is 150 nM. Further, in experiment [2], the Recovering time came out at 5.0 h, the “Time … of max. hypotension” value was found to be 2.0 h, the “Time until reaching to max. hypotension” value stood at 30 min and the Maximum hypotension came out at 57 mmHg. For the same compound, in experiment [3], the activation at 3 µg/heart is 12%; the inhibition at 3 µg/heart, 3 µg/heart was 0%; the inhibition at 3 µg/heart stood at 4%.
Consider `CCCOC(=O)C1=C(C)NC(C)=C(C(=O)NC(C)C)C1c1ccccc1[N+](=O)[O-]` (stereo not drawn) [Example 44], for which, in experiment [1], the EC50 came to 17 nM and the “relaxing / vasodilating activity” value is recorded as “the same or more potent activity”. In experiment [2], the Recovering time was determined as 4.0 h, the “Time … of max. hypotension” value is 2.5 h, the “Time until reaching to max. hypotension” value came to 15 min and the Maximum hypotension stood at 60 mmHg. For the same compound, in experiment [3], the activation at 3 µg/heart was 30%; the inhibition at 3 µg/heart, 3 µg/heart is 20%; the inhibition at 3 µg/heart was determined as 16%.
